Experimental findings from patent US12398097B2, “WDR5-MYC inhibitors” (Vanderbilt University, priority 2019, dated 2025) are described below.

In the experiment the target is WDR5 (Homo sapiens, UniProt P61964). The experiment can be described thus: Competition-based fluorescence polarization anisotropy assay. To be noted: binding to WDR5; displacement of FITC-labeled small molecule probe (analogous to Example J2 or HCH-25) or peptide probe FITC-AHx-SEEEIDVVSV; pH 6.0; Ki converted from IC50. As for the experimental part:
Compounds of the present invention were assessed for their ability to bind to WDr5 using a competition-based fluorescence polarization anisotropy assay, similar to the method previously described. […] Fluorescence polarization measurements were performed in 384-well plates (Greiner Bio One) using a Cytation 3 plate reader (BioTek). Fluorescein isothiocyanate (FITC)-labeled peptide probe ([…]) was purchased from GenScript USA Inc and used without further purification. […] The assay buffer contained 200 mM phosphate, 300 mM NaCl, and 0.5 mM TCEP and 0.1% Chaps at pH 6.0. […] This was converted into a binding dissociation constant (Ki value) according to the formula: […] Data shown in the table below represents a K; determined from this method for each Example, using either a fluorescently labeled small molecule probe analogous to Example J2 or Example HCH-25, or the peptide probe described above, in the assay.
In general terms: In fluorescence polarisation assays a small probe gives low polarisation when free and higher when bound to something large.

The Ki is a dissociation constant, usually derived from enzyme kinetics or from competition with a known ligand. Read a low Ki as higher affinity. Turning to `CNC(=O)c1cc(C2(C#N)CCC2)cc(NS(=O)(=O)c2cc(Br)ccc2OC)c1O` [Example J210, 3-((5-Bromo-2-methoxyphenyl)sulfonamido)-5-(1-cyanocyclobutyl)-2-hydroxy-N-methylbenzamide], the Ki amounted to 390 nM.

For the compound `COc1ccc(Br)cc1S(=O)(=O)Nc1cc(Cl)cc(C(=O)N2CC(OC)C2)c1O` [Example J62, 5-Bromo-N-(5-chloro-2-hydroxy-3-(3-methoxyazetidine-1-carbonyl)phenyl)-2-methoxybenzenesulfonamide], the Ki is 9360 nM.

For `CC(O)(CNC(=O)c1cc(OC(F)(F)F)cc(NS(=O)(=O)c2cc(Br)cc(Cl)c2O)c1O)C1CC1` (stereo not drawn) [HCH-51, 3-((5-Bromo-3-chloro-2-hydroxyphenyl)sulfonamido)-N-(2-cyclopropyl-2-hydroxypropyl)-2-hydroxy-5-(trifluoromethoxy)benzamide], affinity was put at a Ki of 120 nM.

Turning to `CCC(C)(O)CNC(=O)c1cc(OC(F)(F)F)cc(NS(=O)(=O)c2cc(Br)ccc2O)c1O` (stereo not drawn) [HCH-45, 3-((5-Bromo-2-hydroxyphenyl)sulfonamido)-2-hydroxy-N-(2-hydroxy-2-methylbutyl)-5-(trifluoromethoxy)benzamide], the Ki was determined as 440 nM.

Regarding `CCc1cc(NS(=O)(=O)c2cc(Br)cc(F)c2O)c(O)c(C(=O)O)c1` [HCH-21, 3-((5-Bromo-3-fluoro-2-hydroxyphenyl)sulfonamido)-5-ethyl-2-hydroxybenzoic acid], the affinity, expressed as Ki, was 460 nM.

The compound `CCS(=O)(=O)c1cc(Cl)cc(NS(=O)(=O)c2cc(Br)cc(Cl)c2O)c1O` [Example S21, 5-Bromo-3-Chloro-N-(5-chloro-3-(ethylsulfonyl)-2-hydroxyphenyl)-2-hydroxybenzenesulfonamide] returned a Ki of 240 nM.

`CNC(=O)c1cc(C2CC2)cc(NS(=O)(=O)c2cc(Br)cc(Cl)c2O)c1F` [Example J156, 3-((5-Bromo-3-chloro-2-hydroxyphenyl)sulfonamido)-5-cyclopropyl-2-fluoro-N-methylbenzamide] came in with an inhibition constant (Ki) of 210 nM.

In turn, `O=S(=O)(Nc1cc(S(F)(F)(F)(F)F)ccc1O)c1cc(Br)ccc1O` [JDM-08-142A, 5-Bromo-2-hydroxy-N-(2-hydroxy-5-(pentafluorosulfanyl)phenyl)benzenesulfonamide] gave a Ki of 110 nM.

`N#CC1(c2cc(NS(=O)(=O)c3cc(Br)ccc3O)c(O)c(C(N)=O)c2)CCCCC1` [Example J232, 3-((5-Bromo-2-hydroxyphenyl)sulfonamido)-5-(l-cyanocyclohexyl)-2-hydroxybenzamide] gave a Ki of 220 nM.

With `O=C(NC1CCOC1)c1c(O)c(NS(=O)(=O)c2cc(Br)ccc2O)cc(C2CC2)c1F` (stereo not drawn) [Example J131, 3-((5-Bromo-2-hydroxyphenyl)sulfonamido)-5-cyclopropyl-6-fluoro-2-hydroxy-N-(tetrahydrofuran-3-yl)benzamide], the Ki came out at 2990 nM.

Compound `O=C(NCc1cc[nH]c(=O)c1)c1cc(Cl)cc(NS(=O)(=O)c2cc(Br)ccc2O)c1O` [Example J36, 3-((5-Bromo-2-hydroxyphenyl)sulfonamido)-5-chloro-2-hydroxy-N-((2-oxo-1,2-dihydropyridin-4-yl)methyl)benzamide] yielded a Ki of 240 nM.

Consider `COC[C@H]1CCCN1C(=O)c1cc(Cl)cc(NS(=O)(=O)c2cc(Br)ccc2OC)c1O` [Example J57, (R)-5-Bromo-N-(5-chloro-2-hydroxy-3-(2-(methoxymethyl)pyrrolidine-1-carbonyl)phenyl)-2-methoxybenzenesulfonamide], for which the affinity, expressed as Ki, was 8440 nM.

In the case of `O=C(NCCCO)c1cc(Cl)cc(NS(=O)(=O)c2cc(Br)ccc2O)c1O` [Example J17, 3-((5-Bromo-2-hydroxyphenyl)sulfonamido)-5-chloro-2-hydroxy-N-(3-hydroxypropyl)benzamide], the Ki came out at 2690 nM.

`CNC(=O)c1cc(S(F)(F)(F)(F)F)cc(NS(=O)(=O)c2cc(Br)cc3cccnc23)c1O` [Example S67]: the Ki stood at 90 nM.

For `CS(=O)(=O)c1cc(NS(=O)(=O)c2cc(Br)ccc2O)cc(C2CC2)c1` [Example S9, 5-Bromo-N-(3-cyclopropyl-5-(methylsulfonyl)phenyl)-2-hydroxybenzenesulfonamide], the affinity corresponds to a Ki of 1030 nM.

`COc1ccc(Br)cc1S(=O)(=O)Nc1cc(Cl)cc(C(=O)N2CC(O)C2)c1O` [Example J63, 5-Bromo-N-(5-chloro-2-hydroxy-3-(3-hydroxyazetidine-1-carbonyl)phenyl)-2-methoxybenzenesulfonamide] registered a Ki of 5510 nM.

The compound `O=C(NC1COC1)c1cc(NS(=O)(=O)c2cc(Br)ccc2O)cc(C2CC2)c1F` [Example J138, 5-((5-Bromo-2-hydroxyphenyl)sulfonamido)-3-cyclopropyl-2-fluoro-N-(oxetan-3-yl)benzamide] registered a Ki of 4750 nM.

Turning to `CS(=O)(=O)c1cc(C2CC2)cc(NS(=O)(=O)c2cc(Br)cc(Cl)c2O)c1O` [Example S25-2, 5-Bromo-3-chloro-N-(5-cyclopropyl-2-hydroxy-3-(methylsulfonyl)phenyl)-2-hydroxybenzenesulfonamide], the Ki amounted to 100 nM.

The compound `COc1ccc(Br)cc1S(=O)(=O)Nc1cc(OC(F)(F)F)cc(C(=O)NCC2CCCO2)c1O` (stereo not drawn) [Example J179, 3-((5-Bromo-2-methoxyphenyl)sulfonamido)-2-hydroxy-N-((tetrahydrofuran-2-yl)methyl)-5-(trifluoromethoxy)benzamide] displayed a Ki of 740 nM.

Compound `O=S(=O)(Nc1cc(C2CC2)cc(S(=O)(=O)C2CCCO2)c1)c1cc(Br)cc(Cl)c1O` (stereo not drawn) [Example S16, 5-Bromo-3-chloro-N-(3-cyclopropyl-5-((tetrahydrofuran-2-yl)sulfonyl)phenyl)-2-hydroxybenzenesulfonamide] displayed a Ki of 200 nM.

Regarding `O=C(O)CNC(=O)c1cc(OC(F)(F)F)cc(NS(=O)(=O)c2cc(Br)ccc2O)c1O` [HCH-1, (3-((5-Bromo-2-hydroxyphenyl)sulfonamido)-2-hydroxy-5-(trifluoromethoxy)benzoyl)glycine], the affinity corresponds to a Ki of 650 nM.

Compound `CC(C)N(CCS(=O)(=O)c1cc(Cl)cc(NS(=O)(=O)c2cc(Br)ccc2O)c1)C(C)C` [Example S41, 5-Bromo-N-(3-chloro-5-((2-(diisopropylamino)ethyl)sulfonyl)phenyl)-2-hydroxybenzenesulfonamide] returned a Ki of 3810 nM.

For `O=C(N[C@H]1CCOC1)c1cc(Cl)cc(NS(=O)(=O)c2cc(Br)ccc2O)c1O` [Example J22, (S)-3-((5-Bromo-2-hydroxyphenyl)sulfonamido)-5-chloro-2-hydroxy-N-(tetrahydrofuran-3-yl)benzamide], the Ki worked out at 470 nM.

Turning to `COc1ccc(Br)cc1S(=O)(=O)Nc1cc(Cl)cc(C(=O)NCCO)c1O` [Example J59, 3-((5-Bromo-2-methoxyphenyl)sulfonamido)-5-chloro-2-hydroxy-N-(2-hydroxyethyl)benzamide], the Ki stood at 1170 nM.

On to `O=C(c1cc(OC(F)(F)F)cc(NS(=O)(=O)c2cc(Br)ccc2O)c1O)N1CC[C@@H](O)C1` [Example J173, (R)-5-Bromo-2-hydroxy-N-(2-hydroxy-3-(3-hydroxypyrrolidine-1-carbonyl)-5-(trifluoromethoxy)phenyl)benzenesulfonamide], for which the Ki was determined as 1560 nM.

Turning to `N#CC1(c2cc(NS(=O)(=O)c3cc(Br)ccc3O)c(O)c(C(=O)NCCO)c2)CCC1` [Example J228, 3-((5-Bromo-2-hydroxyphenyl)sulfonamido)-5-(1-cyanocyclobutyl)-2-hydroxy-N-(2-hydroxyethyl)benzamide], the inhibition constant (Ki) was 370 nM.

Take `CCS(=O)(=O)c1cc(Cl)cc(NS(=O)(=O)c2cc(Br)ccc2O)c1O` [Example S22, 5-Bromo-N-(5-chloro-3-(ethylsulfonyl)-2-hydroxyphenyl)-2-hydroxybenzenesulfonamide]: the affinity, expressed as Ki, was 250 nM.

Turning to `O=C(NCc1ccc(=O)[nH]c1)c1cc(Cl)cc(NS(=O)(=O)c2cc(Br)ccc2O)c1O` [Example J35, 3-((5-Bromo-2-hydroxyphenyl)sulfonamido)-5-chloro-2-hydroxy-N-((6-oxo-1,6-dihydropyridin-3-yl)methyl)benzamide], the Ki is 230 nM.

For `NC(=O)c1cc(C2CC2)cc(NS(=O)(=O)c2cc(Br)cc([N+](=O)[O-])c2O)c1O` [Example J104, 3-((5-Bromo-2-hydroxy-3-nitrophenyl)sulfonamido)-5-cyclopropyl-2-hydroxybenzamide], the affinity corresponds to a Ki of 610 nM.

Regarding `O=C(O)c1cc(OC(F)(F)F)cc(NS(=O)(=O)c2cc(Br)cc(CCCO)c2O)c1O` [HCH-27, 3-((5-Bromo-2-hydroxy-3-(3-hydroxypropyl)phenyl)sulfonamido)-2-hydroxy-5-(trifluoromethoxy)benzoic acid], the Ki worked out at 400 nM.

Compound `CC(C)N(CCS(=O)(=O)c1cc(Cl)cc(NS(=O)(=O)c2cc(Br)cc(Cl)c2O)c1)C(C)C` [Example S37, 5-Bromo-3-chloro-N-(3-chloro-5-((2-(diisopropylamino)ethyl)sulfonyl)phenyl)-2-hydroxybenzenesulfonamide] returned a Ki of 400 nM.

`O=S(=O)(Nc1cc(OC(F)(F)F)ccc1O)c1cc(Br)ccc1O` [HCH-3-48-1, 5-Bromo-2-hydroxy-N-(2-hydroxy-5-(trifluoromethoxy)phenyl)benzenesulfonamide] displayed a Ki of 550 nM.

With `N#CC1(c2ccc(O)c(NS(=O)(=O)c3cc(Br)ccc3O)c2)CCC1` [JDM-06-030B, 5-Bromo-N-(5-(1-cyanocyclobutyl)-2-hydroxyphenyl)-2-hydroxybenzenesulfonamide], the Ki was determined as 290 nM.
